Laboratory results reported in patent US7049289B1, “Labelled glutamine and lysine analogues” (Amersham PLC, priority 1998, dated 2006).
The star is where a group is joined. Adamantane1carbonyl = O=C(C12CC3CC(CC(C3)C1)C2)*

Tests used:
[1] = Incorporation into clots induced in a rat model (rat inferior vena cava model); format: in vivo, rat (Male Wistar); conditions: for % id/g (clot) / Rel. Conc. (cpm/g of clot by dose/g animal): sacrificed after 60 min
Description: The rats (Male Wistar, 250–350 g) were anaesthetised with 15% urethane. After laparotomy, the vena cava was isolated and freed of surrounding fat tissue. […] The compounds were injected 5 min (fresh clot) and 60 min (aged clot) post-induction. After 60 min the animals were sacrificed and the clot removed, weighed and counted. Other tissues e.g. blood, lung, heart, were also dissected and counted. The uptake of tracer into the clot was determined as the relative concentration (cpm/g of clot by dose/g animal) and clot to background tissue.

[2] = target: T1, fibrin (in vitro human plasma clot) (Homo sapiens, UniProt P02671+P02675+P02679); test: Incorporation into human plasma clots in vitro; format: biochemical; conditions: for % specific uptake: % retained (with thrombin) - % retained (no thrombin); for % retained (no thrombin): control without thrombin and calcium chloride (non-specific binding); for % retained (with thrombin): human plasma clot, 60 minutes, ca. 20° C.
T1 construct: about 400 μl of human plasma containing the radiolabelled substrate; from tissue; host or cells: human plasma, clotted in vitro with added thrombin and calcium chloride
T1 sequence (P02671 20-644 isoform P02671-2 limits assumed): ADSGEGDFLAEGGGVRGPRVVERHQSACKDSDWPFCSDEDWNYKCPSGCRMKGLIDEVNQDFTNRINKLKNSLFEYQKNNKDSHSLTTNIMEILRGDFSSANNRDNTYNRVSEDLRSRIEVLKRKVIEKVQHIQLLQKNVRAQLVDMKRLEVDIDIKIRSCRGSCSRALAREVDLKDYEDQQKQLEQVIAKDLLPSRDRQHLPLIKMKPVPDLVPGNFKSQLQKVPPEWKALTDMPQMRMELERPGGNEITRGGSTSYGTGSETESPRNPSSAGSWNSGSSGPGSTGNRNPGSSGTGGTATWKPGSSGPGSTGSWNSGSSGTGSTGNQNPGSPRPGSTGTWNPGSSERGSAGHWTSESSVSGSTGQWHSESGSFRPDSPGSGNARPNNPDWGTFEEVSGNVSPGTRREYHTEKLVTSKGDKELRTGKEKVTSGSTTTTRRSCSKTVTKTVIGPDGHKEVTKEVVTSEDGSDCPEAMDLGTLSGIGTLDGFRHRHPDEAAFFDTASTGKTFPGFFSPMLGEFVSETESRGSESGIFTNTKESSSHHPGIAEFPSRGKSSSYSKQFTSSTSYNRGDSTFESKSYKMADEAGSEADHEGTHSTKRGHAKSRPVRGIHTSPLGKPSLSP
T1 sequence (P02675 45-491 limits assumed): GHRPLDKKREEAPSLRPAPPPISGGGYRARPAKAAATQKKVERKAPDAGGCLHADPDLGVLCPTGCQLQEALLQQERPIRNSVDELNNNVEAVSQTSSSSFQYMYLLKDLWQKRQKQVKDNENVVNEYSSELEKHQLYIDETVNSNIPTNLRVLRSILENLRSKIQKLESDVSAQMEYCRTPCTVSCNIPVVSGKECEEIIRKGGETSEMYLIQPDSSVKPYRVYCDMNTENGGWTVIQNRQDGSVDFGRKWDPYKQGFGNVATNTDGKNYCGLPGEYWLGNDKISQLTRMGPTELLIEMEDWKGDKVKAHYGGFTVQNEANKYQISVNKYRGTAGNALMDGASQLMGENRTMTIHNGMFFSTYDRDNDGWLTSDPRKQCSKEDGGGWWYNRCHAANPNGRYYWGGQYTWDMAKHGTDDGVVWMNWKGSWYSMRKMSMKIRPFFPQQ
T1 sequence (P02679 27-437 isoform P02679-2 limits assumed): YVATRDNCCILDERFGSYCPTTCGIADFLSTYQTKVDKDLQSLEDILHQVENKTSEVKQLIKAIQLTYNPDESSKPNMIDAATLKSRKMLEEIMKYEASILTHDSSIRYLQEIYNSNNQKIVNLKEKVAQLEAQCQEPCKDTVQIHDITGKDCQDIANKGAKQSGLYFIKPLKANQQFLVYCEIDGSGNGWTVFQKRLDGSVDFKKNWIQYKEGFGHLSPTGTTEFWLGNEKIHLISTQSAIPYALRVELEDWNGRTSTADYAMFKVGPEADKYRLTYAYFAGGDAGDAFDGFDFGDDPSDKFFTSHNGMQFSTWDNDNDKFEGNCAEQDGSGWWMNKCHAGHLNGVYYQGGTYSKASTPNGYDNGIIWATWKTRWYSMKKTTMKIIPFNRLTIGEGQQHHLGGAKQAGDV
Description: Incorporation of radiolabelled substrates into fibrin was investigated by induction of an in vitro human plasma clot in the following manner. To a siliconised 5 ml glass vial was added, (a) 800 μl of Tris(hydroxymethyl)aminomethane buffered saline pH 7.5 containing calcium chloride (50 mM Tris, 150 mM sodium chloride, 4 mM calcium chloride.), (b) about 40 μl of physiological salt solution containing 100 units of thrombin per ml, (c) about 400 μl of human plasma containing the radiolabelled substrate at a concentration of typically 10 kBq/ml. To aid induction of clot a roughened glass rod was added to the reaction vial. Control vials were prepared similarly but with the omission of thrombin and calcium chloride.
After incubation of the test solution at ambient laboratory temperature (ca. 20° C.) for 60 minutes the reaction was discontinued with the addition of about 400 μl of a cold solution of 33.5 mM ethylenediaminetetra-acetic acid disodium salt. Clots were separated from serum by vacuum filtration onto […] nitrocellulose filters (pre-soaked in 1.5% BSA/tris(hydroxymethyl)aminoethae buffered saline pH 7.5 containing 0.1% Tween 20) and washed with about 2×10 ml of tris(hydroxymethyl)aminomethane buffered saline pH 7.5 containing Tween 20 to a final concentration of 0.1% v/v. The proportion of total radioactivity was calculated by counting in suitable detection apparatus.
The fraction of radioactivity retained on the filter, after subtraction of the non-specific binding determined from the control, is a measure of incorporation into the filtered clots.

[3] = Aged Clots: injected 60 min post-induction
[4] = Fresh Clots: injected 5 min post-induction

Substance | Clot/blood ([1]; Aged Clots) | Clot/heart ([1]; Aged Clots) | Clot/liver ([1]; Aged Clots) | Clot/lung ([1]; Aged Clots) | % id/g (clot) [1, 3] | Rel. Conc. (cpm/g of clot by dose/g animal) [1, 3] | Clot/blood ([1]; Fresh Clots) | Clot/heart ([1]; Fresh Clots) | Clot/liver ([1]; Fresh Clots) | Clot/lung ([1]; Fresh Clots) | % id/g (clot) [1, 4] | Rel. Conc. (cpm/g of clot by dose/g animal) [1, 4] | % specific uptake [2] | % retained (no thrombin) [2] | % retained (with thrombin) [2] | in vitro clot uptake (in words) ([2]; in vitro clot)
Ac-NQEQVSP-Nal(2)-TLLKG-Pn216 [^99mTc-Cmpd 20] | 10 | 36 | 23 | 14 | 1.7 ± 0.5 % id/g | 4.9 ± 1.4 | 12 | 30 | 18 | 11 | 2.3 ± 0.6 % id/g | 6.5 ± 1.3 | 62.4% | 2.6% | 65.0% | 
Ac-NQEQVSPLTLLKG-Pn216 (also: 99mTc complex) [^99mTc-Cmpd 19] | 14 | 13 | 6 | 5 | 3.2 ± 2.3 % id/g | 9.1 ± 7.1 | 3 | 29 | 17 | 7 | 2.5 ± 0.3 % id/g | 7.1 ± 1.2 | 48.0% | 0.2% | 48.2% | 
Ac-NQEQVSPYTLL(D-K)G-Pn216 [^99mTc-Cmpd 28] | 17 | 3 | 1 | 2 | 4.5 ± 1.1 % id/g | 13.1 ± 3.4 | 13 | 31 | 35 | 19 | 3.5 ± 2.0 % id/g | 9.7 ± 5.0 | 41.9% | 0.2% | 42.1% | 
Ac-NQEQVSPYTLLKG-(PEG)10k-Pn216 (Ac-NQEQVSPYTLLKG-{PEG 10k-Pn216}; also: 99mTc complex) [^99mTc-Cmpd 41] | 1 | 13 | 4 | 6 | 0.4 ± 0.1 % id/g | 1.1 ± 0.3 | 3 | 6 | 8 | 4 | 0.7 ± 0.1 % id/g | 2.2 ± 0.3 | 37.4% | 7.1% | 44.5% | 
Ac-NQEQVSPYTLLKG-NH2 [^123I-Cmpd 2] | 24 | 23 | 20 | 12 | 5.5 ± 1.7 % id/g | 14.5 ± 3.9 | 7 | 19 | 21 | 10 | 4.9 ± 0.8 % id/g | 14.5 ± 2.2 | 38.4% | 0.2% | 38.6% | 
Ac-NQQQVSPYTLLKG-Pn216 (also: 99mTc complex) [^99mTc-Cmpd 15] | 3 | 1 |  | 0.6 | 3.4 ± 0.6 % id/g | 7.6 ± 1.6 | 4 | 12 | 11 | 6 | 3.6 ± 1.0 % id/g | 8.3 ± 2.2 | 55.2% | 0.4% | 55.6% | 
Ac-N—CH2NH2-QEQVSP(D-Y)TLL(D-K)G-Pn216 [^99mTc-Cmpd 34] | 3 |  | 6 |  | 0.4 ± 0.1 % id/g | 1.4 ± 0.4 | 2 | 6 | 8 | 3 | 0.5 ± 0.2 % id/g | 1.8 ± 0.5 | 5.4% | 0.1% | 5.5% | significant reduction in uptake
Adamantoyl-NQEQVSPYTLLKG-Pn216 (Adamantane1carbonyl-NQEQVSPYTLLKG-Pn216; also: 99mTc complex) [^99mTc-Cmpd 11] | 5 | 13 | 4 | 6 | 0.4 ± 0.3 % id/g | 1.2 ± 0.8 | 10 | 24 | 11 | 11 | 1.1 ± 0.4 % id/g | 3.3 ± 1.1 | 66.9% | 1.2% | 68.1% | 
Cyclo-[NQEQVSPYTLLKG] (cyclo(NQEQVSPYTLLKG); also: 123I label, place not given here) [^123I-Cmpd 44] | 0.9 | 1 | 1 | 2 | 0.5 ± 0.03 % id/g | 1.2 ± 0.1 | 0.9 | 1 | 2 | 1.5 | 0.4 ± 0.1 % id/g | 1.1 ± 0.2 | 13.8% | 0.3% | 14.1% | 
Fmoc-NQEQVSP(I-Y)TLLKG-Pn216 [^99mTc-Cmpd 26] | 7 | 31 | 54 | 12 | 4.0 ± 0.9 % id/g | 12.9 ± 3.5 | 16 | 38 | 16 | 11 | 14.1 ± 10 % id/g | 41.4 ± 28 | 55.1% | 8.2% | 63.3% | 
